According to patent US10947213B1 (Merck Patent GmbH, priority 2015, dated 2021):

The compounds below were run against T1, TLR7/NFKb HEK cells (Homo sapiens, UniProt Q9NYK1) (assay: HEK Cell Assay (TLR7/NFKb reporter, Steady-Glo luciferase readout)). Details: 30 min compound preincubation, then R*48 agonist for 5 hours, read-out: Potency.
T1 construct: expressed in transfected cells; host or cells: HEK cells (TLR7/NFKb reporter line)
T1 sequence (Q9NYK1 27-1049): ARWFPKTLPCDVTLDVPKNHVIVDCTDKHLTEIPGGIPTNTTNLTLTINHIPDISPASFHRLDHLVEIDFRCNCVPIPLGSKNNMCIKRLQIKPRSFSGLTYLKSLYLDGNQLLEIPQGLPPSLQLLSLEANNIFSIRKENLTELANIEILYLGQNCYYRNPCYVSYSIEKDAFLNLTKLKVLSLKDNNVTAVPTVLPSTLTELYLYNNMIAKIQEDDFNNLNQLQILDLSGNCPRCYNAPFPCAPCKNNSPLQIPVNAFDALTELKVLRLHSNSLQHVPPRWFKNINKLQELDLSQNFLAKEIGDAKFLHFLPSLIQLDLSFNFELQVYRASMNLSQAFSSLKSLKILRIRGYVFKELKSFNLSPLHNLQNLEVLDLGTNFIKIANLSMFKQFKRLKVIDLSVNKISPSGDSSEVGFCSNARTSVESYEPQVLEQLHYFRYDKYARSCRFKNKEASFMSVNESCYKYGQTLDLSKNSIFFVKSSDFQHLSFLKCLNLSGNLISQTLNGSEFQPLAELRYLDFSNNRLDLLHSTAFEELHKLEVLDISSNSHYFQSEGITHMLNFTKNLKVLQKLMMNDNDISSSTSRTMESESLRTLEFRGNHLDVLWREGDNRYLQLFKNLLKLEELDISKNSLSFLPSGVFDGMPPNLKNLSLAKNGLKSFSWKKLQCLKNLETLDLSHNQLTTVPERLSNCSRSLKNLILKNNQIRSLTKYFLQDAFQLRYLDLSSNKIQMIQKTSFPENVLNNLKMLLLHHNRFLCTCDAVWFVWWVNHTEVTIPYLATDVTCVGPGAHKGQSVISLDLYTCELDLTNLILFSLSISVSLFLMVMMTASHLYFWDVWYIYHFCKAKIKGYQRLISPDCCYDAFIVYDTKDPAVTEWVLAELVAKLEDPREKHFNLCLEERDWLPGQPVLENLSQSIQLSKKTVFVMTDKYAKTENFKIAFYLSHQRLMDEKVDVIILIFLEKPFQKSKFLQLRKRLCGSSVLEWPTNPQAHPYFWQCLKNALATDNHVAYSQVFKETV
Type: cell-based
Procedure, shortened: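 Steady-Glo luminescence after 5 h stimulation with R*48 agonist, following 30 min compound preincubation. Assay run in HEK cells carrying a TLR7/NFKb luciferase reporter, plated at 5000 cells/well and grown 24 h at 37° C (10% CO2) before treatment.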

| SMILES | IC50 [µM] |
| --- | --- |
| CC1(C)CCN(CC(=O)N[C@@H]2C[C@H](C(F)(F)F)CN(c3ccc(C#N)c4ncccc34)C2)C1 [Compound 577, N-[(3R,5S)-1-(8-Cyano-quinolin-5-yl)-5-trifluoromethyl-piperidin-3-yl]-2-(3,3-dimethyl-pyrrolidin-1-yl)-acetamide] | < 1 |
| CN1CCN(CC(=O)N[C@H]2C[C@@H](C3CC3)CN(c3ccc(C(F)(F)F)c4ncccc34)C2)CC1 (racemic) [Compound 338, cis-N-[5-cyclopropyl-1-[8-(trifluoromethyl)quinolin-5-yl]piperidin-3-yl]-2-(4-methylpiperazin-1-yl)acetamide] | < 1 |
| CCN(CC)CCNCC1CCN(c2cc(C)nc3cc(F)ccc23)CC1 [Compound 386, N,N-Diethyl-N′-[1-(7-fluoro-2-methyl-quinolin-4-yl)-piperidin-4-ylmethyl]-ethane-1,2-diamine] | 1 to 10 |
| CC(C)(C)CC(=O)N[C@H]1CN(c2ccc(C#N)c3nccnc23)CC(C)(C)C1 [Compound 215, N-[(3R)-1-(8-cyanoquinoxalin-5-yl)-5,5-dimethylpiperidin-3-yl]-3,3-dimethylbutanamide] | < 1 |
| NC1CN(c2ccc(C(F)(F)F)c3ncccc23)CC(F)(F)C1 (centres unmarked) [Compound 510, 5,5-Difluoro-1-(8-trifluoromethyl-quinolin-5-yl)-piperidin-3-ylamine] | < 1 |
| C[C@H]1C[C@@H](NC2CCOC2)CN(c2ccnc3nccnc23)C1 (stereo partly drawn) [Compound 139, (3R,5S)-5-methyl-N-(oxolan-3-yl)-1-[pyrido[2,3-b]pyrazin-8-yl]piperidin-3-amine] | > 10 |
| C[C@H]1C[C@@H](NC(=O)Cc2c[nH]cn2)CN(c2ccnc3nccnc23)C1 [Compound 131, 2-(1H-imidazol-4-yl)-N-[(3R,5S)-5-methyl-1-[pyrido[2,3-b]pyrazin-8-yl]piperidin-3-yl]acetamide] | > 10 |
| COCCN[C@@H]1C[C@H](C)CN(c2ccc(C(F)F)c3ncccc23)C1 [Compound 206, (3R,5S)-1-[8-(difluoromethyl)quinolin-5-yl]-N-(2-methoxyethyl)-5-methylpiperidin-3-amine] | < 1 |
| CCNC(=O)C1CCN(C[C@H]2CN(c3ccnc4nccnc34)C[C@@H](C)O2)CC1 [Compound 62, N-ethyl-1-(((2S,6R)-6-methyl-4-(pyrido[2,3-b]pyrazin-8-yl)morpholin-2-yl)methyl)piperidine-4-carboxamide] | 1 to 10 |
| N#Cc1ccc(N2CCC(C(=O)NCCN3CCCC3)CC2)c2cccnc12 [Compound 422, 1-(8-Cyano-quinolin-5-yl)-piperidine-4-carboxylic Acid (2-pyrrolidin-1-yl-ethyl)-amide] | < 1 |
| Cc1ncc(N2C[C@@H](C)C[C@@H](NC(=O)CC3CCN(C)CC3)C2)c2cccnc12 [Compound 554, N-[(3R,5S)-5-Methyl-1-(8-methyl-[1,7]naphthyridin-5-yl)-piperidin-3-yl]-2-(1-methyl-piperidin-4-yl)-acetamide] | < 1 |
| C[C@H]1C[C@@H](NC(=O)CN2CC(O)C2)CN(c2ccc(C#N)c3nccnc23)C1 [Compound 270] | < 1 |
| CCN1CCC[C@H]1C(=O)NC1CC(C(F)(F)F)CN(c2ccc(C#N)c3ncccc23)C1 (single isomer, unassigned) [Compound 437] | 1 to 10 |
| C[C@H]1C[C@@H](NC(=O)CC2(O)CCCCC2)CN(c2ccc(C(F)(F)F)c3ncccc23)C1 [Compound 484, 2-(1-Hydroxy-cyclohexyl)-N-[(3R,5S)-5-methyl-1-(8-trifluoromethyl-quinolin-5-yl)-piperidin-3-yl]-acetamide] | < 1 |
| CC(C(=O)N[C@@H]1C[C@H](C)CN(c2ccc(C(F)F)c3ncccc23)C1)N1CC(O)C1 (stereo partly drawn) [Compound 309, N-[(3R,5S)-1-[8-(difluoromethyl)quinolin-5-yl]-5-methylpiperidin-3-yl]-2-(3-hydroxyazetidin-1-yl)propanamide] | < 1 |
| C[C@H]1C[C@@H](N(C)C(=O)CN(C)C)CN(c2ccc(C(F)(F)F)c3ncccc23)C1 [Compound 452, 2-Dimethylamino-N-methyl-N-[(3R,5S)-5-methyl-1-(8-trifluoromethyl-quinolin-5-yl)-piperidin-3-yl]-acetamide] | < 1 |

| SMILES | IC50 [µM] |
| --- | --- |
| C[C@H]1C[C@@H](NC(=O)CN2CC(O)C2)CN(c2ccc(C(F)F)c3ncccc23)C1 [Compound 308, N-[(3R,5S)-1-[8-(difluoromethyl)quinolin-5-yl]-5-methylpiperidin-3-yl]-2-(3-hydroxyazetidin-1-yl)acetamide] | 1 to 10 |
| CC(C(=O)NC1CN(c2ccc(C#N)c3nccnc23)CC(F)(F)C1)N1CCOCC1 (centres unmarked) [Compound 509, N-[1-(8-Cyano-quinoxalin-5-yl)-5,5-difluoro-piperidin-3-yl]-2-morpholin-4-yl-propionamide] | > 10 |
| CCN(CC)C1CCN(CC2CCN(c3ccnc4nccnc34)CC2)CC1 [Compound 4, N,N-diethyl-1-((1-(pyrido[2,3-b]pyrazin-8-yl)piperidin-4-yl)methyl)piperidin-4-amine] | 1 to 10 |
| C[C@H]1C[C@@H](NC(=O)CC2CCN(C)CC2)CN(c2ccc(C(F)F)c3nccnc23)C1 [Compound 328, N-[(3R,5S)-1-[8-(difluoromethyl)quinoxalin-5-yl]-5-methylpiperidin-3-yl]-2-(1-methylpiperidin-4-yl)acetamide] | < 1 |
| C#CC(=O)N[C@@H]1C[C@H](C)CN(c2ccc(C(F)(F)F)c3ncccc23)C1 [Compound 472, Propynoic acid [(3R,5S)-5-methyl-1-(8-trifluoromethyl-quinolin-5-yl)-piperidin-3-yl]-amide] | < 1 |
| C[C@H]1C[C@@H](NC(=O)C(N)C(F)(F)F)CN(c2c(F)cc(C#N)c3nccnc23)C1 (single isomer, unassigned) [Compound 346] | > 10 |
| CC(C(=O)N[C@@H]1C[C@H](C)CN(c2ccc(C(F)(F)F)c3nccnc23)C1)N1CCC(O)CC1 (single isomer, unassigned) [Compound 372] | < 1 |
| C[C@H]1C[C@@H](NC(=O)C(N)C2CC2)CN(c2ccc(C#N)c3nccnc23)C1 (stereo partly drawn) [Compound 268, 2-amino-N-[(3R,5S)-1-(8-cyanoquinoxalin-5-yl)-5-methylpiperidin-3-yl]-2-cyclopropylacetamide] | < 1 |
| FC(F)(F)c1ccc2nccc(N3CCC(CNCCN4CCCCC4)CC3)c2c1 [Compound 387, (2-Piperidin-1-yl-ethyl)-[1-(6-trifluoromethyl-quinolin-4-yl)-piperidin-4-ylmethyl]-amine] | 1 to 10 |
| N[C@H]1C[C@@H](C2CC2)CN(c2ccc(F)c3ncccc23)C1 (relative stereo) [Compound 333, cis-5-cyclopropyl-1-(8-fluoroquinolin-5-yl)piperidin-3-amine] | < 1 |
| C[C@H]1C[C@@H](NC(=O)CN2CC(N)C2)CN(c2ccc(C(F)(F)F)c3ncccc23)C1 [Compound 280, 2-(3-aminoazetidin-1-yl)-N-[(3R,5S)-5-methyl-1-[8-(trifluoromethyl)quinolin-5-yl]piperidin-3-yl]acetamide] | < 1 |
| C[C@H]1C[C@@H](NC(=O)CN2CC(N)C2)CN(c2ccc(C(F)F)c3ncccc23)C1 [Compound 304, 2-(3-aminoazetidin-1-yl)-N-[(3R,5S)-1-[8-(difluoromethyl)quinolin-5-yl]-5-methylpiperidin-3-yl]acetamide] | < 1 |
| Cc1ncc(N2C[C@@H](C)C[C@@H](N)C2)c2cccnc12 [Compound 553, (3R,5S)-5-methyl-1-(8-methyl-1,7-naphthyridin-5-yl)piperidin-3-amine] | < 1 |
| C[C@H]1C[C@@H](NC2COC2)CN(c2ccc(C#N)c3nccnc23)C1 [Compound 137, 8-[(3S,5R)-3-methyl-5-[(oxetan-3-yl)amino]piperidin-1-yl]quinoxaline-5-carbonitrile] | < 1 |
| C[C@H]1C[C@@H](NC(=O)CN2CCOCC2)CN(c2ccc(C#N)c3nccnc23)C1 [Compound 108, N-[(3R,5S)-1-(8-cyanoquinoxalin-5-yl)-5-methylpiperidin-3-yl]-2-(morpholin-4-yl)acetamide] | < 1 |
| C[C@H]1C[C@@H](NC(=O)CN2CC(O)C2)CN(c2ccc(C(F)(F)F)c3nccnc23)C1 [Compound 296, 2-(3-hydroxyazetidin-1-yl)-N-[(3R,5S)-5-methyl-1-[8-(trifluoromethyl)quinoxalin-5-yl]piperidin-3-yl]acetamide] | < 1 |
